Legend:
[1] = tested on: honey mesquite (Prosopis glandulosa); assay: Test B: field study, control of natural stands of honey mesquite; format: in vivo; settings: for % Control Site 1 Observed: Site 1, 12 months after application, 94 L/ha; for % Control Site 1 Observed / % Control Site 2 Observed: % dead trees, g ai/ha: Compound 1 125, triclopyr (a.e., as butotyl ester) 280; for % Control Site 2 Observed: Site 2, 10 months after application, 140 L/ha
Procedure: A field study was conducted to evaluate the efficacy of 125 g/ha of Compound 1 and 280 g/ha of triclopyr (in the form of the butoxyethyl ester of triclopyr, i.e. triclopyr-butotyl), separately and in combination, for controlling natural stands of honey mesquite (Prosopis glandulosa) on ranches in western Texas. Compound 1 was in the form of an 80% wettable granule formulation. Triclopyr was provided by GARLON® 4 or REMEDY®, which are emulsifiable concentrate formulations containing 44.3% or 61.6% of triclopyr-butotyl, respectively.
The trial design was a large block, single replicate test. Each test used rectangular test plots measuring 3 m by 9 m and incorporating at least 10 mesquite plants per plot. The formulated herbicides were diluted with water, and 1% by volume of methylated seed oil was added, to provide volumes of spray mixtures corresponding to a rate of 94 L/ha at Site 1 and 140 L/ha at Site 2. The treatments were applied using flat fan nozzles on an elevated spray boom moved across the plots by an all-terrain vehicle or small tractor. The elevated spray boom and relatively low spray volumes simulated aerial (e.g., helicopter or fixed wing aircraft) applications.
In each plot 10 mesquite trees were identified with a metal tag for evaluation. The effects of the herbicide treatments were evaluated 12 months after application at Site 1 and 10 months after application at Site 2. Visual evaluations were used to rate the herbicidal effect of the various treatments. A tree was considered alive if any foliage was present within the tree canopy area or if any new growth (i.e. sprouts) emerged from the base of the tree.
Expected results were calculated using the Colby Equation. Colby's equation (S. R. Colby, “Calculating Synergistic and Antagonistic Responses of Herbicide Combinations,” Weeds, 15(1), pp 20-22 (1967)) calculates the expected additive effect of herbicidal mixtures, and for two active ingredients is of the form: Pa+b=Pa+Pb−(PaPb/100) wherein • Pa+b is the percentage effect of the mixture expected from additive contribution of the individual components, • Pa is the observed percentage effect of the first active ingredient at the same use rate as in the mixture, and • Pb is the observed percentage effect of the second active ingredient at the same use rate as in the mixture.

[2] = tested on: huisache (Acacia farnesiana); assay: Test A: field study, control of a natural stand of huisache; format: in vivo; settings: for % Defoliation 62 DAA: 62 days after application, vs control plot, foliar spray with 1% methylated seed oil, g ai/ha: Compound 1 250, fosamine-ammonium 6688, imazapyr (a.e.) 280, metsulfuron-methyl 42, alone or combined; for % Control 229 DAA: 229 days after application; for % Control 229 DAA / % Control 745 DAA / % Control 543 DAA / % Control 656 DAA: % of trees with no green foliage or regrowth, g ai/ha: Compound 1 250, fosamine-ammonium 6688, imazapyr 280, metsulfuron-methyl 42; for % Control 745 DAA: 745 days after application; for % Control 543 DAA: 543 days after application; for % Control 656 DAA: 656 days after application
Procedure: A field study was conducted to evaluate the efficacy of 250 g/ha of Compound 1, 6.7 kg/ha of fosamine-ammonium (i.e. ammonium salt of fosamine), 280 g/ha of imazapyr (provided in the form of the isopropylammonium salt of imazapyr) and 42 g/ha of metsulfuron-methyl, separately and in combination, for controlling a natural stand of huisache (Acacia farnesiana) on a ranch in southeastern Texas. Compound 1 was in the form of a wettable granule formulation containing 80% by weight of Compound 1. Fosamine-ammonium was provided by KRENITE® S, which is a water-soluble liquid formulation containing 41.5% of fosamine-ammonium. Imazapyr was provided by ARSENAL®, which is a water-soluble liquid formulation containing 28.7% of imazapyr-isopropylammonium (equivalent to 22.6% of imazapyr, i.e. imazapyr acid equivalent). Metsulfuron-methyl was provided by ESCORT® XP, which is a wettable granule formulation containing 60% of metsulfuron-methyl.
The trial design was a large block, single replicate field study using rectangular test plots measuring 12.8 m by 22.9 m. The huisache trees in the test plots averaged 2.4 m tall and were estimated to be approximately 20 years old. The formulated herbicides were diluted with water and 1% by volume of methylated seed oil was added to provide about 27.4 L of spray mixture. The treatments were applied in early autumn using a high-volume handgun sprayer projecting the spray mixture upward and across a plot in a slow back and forth motion while traversing the plot lengthwise. This produced a rainfall-like spray covering both the huisache trees and ground between trees in the plots. The volume of spray mixture used (corresponding to 935 L/ha) was sufficient to thoroughly wet the foliage of the huisache trees with relatively little drip or run off under the trees.
The effects of the herbicide treatments were visually evaluated. At 62 days after application (DAA), the percentage of defoliation in comparison to a control plot was observed. Then at 229, 543, 656 and 745 days after application % control was calculated based on the percentage of trees showing no green foliage or regrowth.

With O=C(O)COc1nc(Cl)c(Cl)cc1Cl [Triclopyr, [(3,5,6-trichloro-2-pyridyl)oxy]acetic acid] the “% Control Site 1 Observed” value [1] was 0% and the “% Control Site 2 Observed” value [1] was 30%.

For COC(=O)c1nc(C2CC2)nc(N)c1Cl [Compound 1, methyl 6-amino-5-chloro-2-cyclopropyl-4-pyrimidine-carboxylate], the “% Defoliation 62 DAA” value [2] was 100%, the “% Control 229 DAA” value [2] was 91% and the “% Control 745 DAA” value [2] was 33%. For the same compound, the “% Control Site 1 Observed” value [1] was 60%, the “% Control Site 2 Observed” value [1] was 60% and the “long-term control of honey mesquite (text summary over Sites 1 and 2)” value ([1]; both sites, Compound 1 125 g/ha, triclopyr 280 g/ha) was 60%.

For CC(C)C1(C)N=C(c2ncccc2C(=O)O)NC1=O (racemic) [Imazapyr, (±)-2-[4,5-dihydro-4-methyl-4-(1-methylethyl)-5-oxo-1H-imidazol-2-yl]-3-pyridinecarboxylic acid], the “% Defoliation 62 DAA” value [2] was 70%, the “% Control 229 DAA” value [2] was 9% and the “% Control 543 DAA” value [2] was 0%. The “% Control 656 DAA” value [2] was 0% and the “% Control 745 DAA” value [2] was 0%.

With COC(=O)c1ccccc1S(=O)(=O)NC(=O)Nc1nc(C)nc(OC)n1 [Metsulfuron-methyl, methyl 2-[[[[(4-methoxy-6-methyl-1,3,5-triazin-2-yl)amino]carbonyl]amino]sulfonyl]benzoate] the “% Defoliation 62 DAA” value [2] was 85%, the “% Control 229 DAA” value [2] was 11% and the “% Control 543 DAA” value [2] was 0%. The “% Control 656 DAA” value [2] was 0% and the “% Control 745 DAA” value [2] was 0%.

CCOP(=O)(O)C(N)=O [Fosamine, ethyl hydrogen (aminocarbonyl)phosphonate] was tested, and the “% Defoliation 62 DAA” value [2] was 75%, the “% Control 229 DAA” value [2] was 0% and the “% Control 543 DAA” value [2] was 0%. For the same compound, the “% Control 656 DAA” value [2] was 0% and the “% Control 745 DAA” value [2] was 0%.

From US8298991B2, “Method for controlling undesired mimosoideae vegetation” (E I du Pont de Nemours and Company, priority 2008, dated 2012)
